Source: ChEMBL document CHEMBL1201862, “PubChem BioAssay data set” (2004)
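Where inhibition never reached the appropriate level, the endpoint shown equals the highest concentration tested. Otherwise, values were interpolated linearly from a five-concentration, 48-hour dose response in 96-well plates. At the GI50, growth is halved.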 Calls of active or inactive are those of the source. Cut-off read from the data, not from the text of the source: active = GI50 up to about 1.1 µM and inactive = higher.

Tests used:
Experiment in all cases: growth of human tumour cells (NCI), 48 h
DU-145 = system: DU-145
SF-295 = system: SF-295
CAKI-1 = system: CAKI-1
OVCAR-4 = system: OVCAR-4
NCI-H460 = system: NCI-H460
MDA-MB-435 = system: MDA-MB-435
ACHN = system: ACHN
RPMI-8226 = system: RPMI-8226
OVCAR-3 = system: OVCAR-3
MOLT-4 = system: MOLT-4
OVCAR-5 = system: OVCAR-5
HCT-116 = system: HCT-116
IGROV-1 = system: IGROV-1
A549 = system: A549
HT-29 = system: HT-29
UACC-62 = system: UACC-62
EKVX = system: EKVX
RXF 393 = system: RXF 393
KM12 = system: KM12
Malme-3M = system: Malme-3M

Measured: GI50

CCOC(=O)C(Cc1cn(C(C)=O)c2ccccc12)P(=O)(OCC)OCC (centres undefined)
inactive: DU-145 > 100 µM | SF-295 > 100 µM | CAKI-1 > 100 µM | OVCAR-4 > 100 µM | NCI-H460 55.1 µM | MDA-MB-435 > 10 µM | ACHN > 100 µM | RPMI-8226 > 100 µM | OVCAR-3 > 100 µM | MOLT-4 > 100 µM | OVCAR-5 > 100 µM | HCT-116 > 100 µM | IGROV-1 > 100 µM | A549 > 100 µM | HT-29 > 100 µM

O=C(O)c1cc2c(ncc3c(=O)n(-c4ccccc4)[nH]c32)s1
inactive: UACC-62 > 100 µM | CAKI-1 > 100 µM | OVCAR-4 > 100 µM | NCI-H460 > 100 µM | EKVX > 100 µM | RXF 393 > 100 µM | ACHN > 100 µM | RPMI-8226 > 100 µM | OVCAR-3 > 100 µM | MOLT-4 > 100 µM | OVCAR-5 > 100 µM | HCT-116 > 100 µM | IGROV-1 > 100 µM | KM12 > 100 µM | A549 > 100 µM | Malme-3M > 100 µM | HT-29 > 100 µM

Clc1ccc(/N=c2\oc3ccccc3cc2-c2nc3ccccc3[nH]2)c(Cl)c1
inactive: UACC-62 24.6 µM | DU-145 > 100 µM | SF-295 > 100 µM | CAKI-1 > 100 µM | OVCAR-4 > 100 µM | EKVX 51.2 µM | RXF 393 18.6 µM | MDA-MB-435 > 100 µM | ACHN 31 µM | RPMI-8226 > 100 µM | OVCAR-3 > 100 µM | MOLT-4 > 100 µM | OVCAR-5 > 100 µM | HCT-116 > 100 µM | IGROV-1 > 100 µM | KM12 > 100 µM | Malme-3M > 100 µM | HT-29 > 100 µM

O=C1CCc2cc3c(cc21)CC1(Cc2cc4c(cc2C1)CCCC4)C3
inactive: UACC-62 39.9 µM | DU-145 > 100 µM | SF-295 33.9 µM | OVCAR-4 29 µM | NCI-H460 41.4 µM | EKVX > 100 µM | RXF 393 16 µM | MDA-MB-435 4.68 µM | ACHN > 100 µM | RPMI-8226 > 100 µM | OVCAR-3 53.6 µM | MOLT-4 > 100 µM | OVCAR-5 > 100 µM | HCT-116 37.2 µM | IGROV-1 97.5 µM | KM12 51.2 µM | A549 88.9 µM | Malme-3M 90.6 µM | HT-29 34.8 µM
